pIC50: −log10 of the molar value.
Test system: 898857-211-R-J1-PDC complex spheroids, growth % test/control
Test: Anticancer human tumor 898857-211-R-J1-PDC patient-derived melanoma cell line growth inhibition [RAS]
Conditions: for pIC50: curve of first compound; for viability, T/C: stronger effect = lower value
Source text: RAS pathway inhibitors in Combinations in Complex Spheroids
A high-throughput screen of multi-cell type tumor spheroids was designed to identify active combinations of RAS pathway inhibitors and targeted small molecules. Complex spheroids include a stromal component modeled by human endothelial cells (HUVEC) and fibroblasts modeled by human mesenchymal stem cells (MSCs). The concentration ranges selected for each drug and investigational agent were based upon clinically achievable concentrations if the clinical Cmax of the agent was known.
Compounds. The drugs and investigational agents: abemaciclib (NSC768073), cobimetinib (NSC768068), divarasib (GDC6063, NSC841802), docetaxel (NSC628503), GDC-1971 (RLY-1971, NSC841576), gemcitabine (NSC613327), inavolisib (NSC800729), ipatasertib (NSC767898), KB-0742 (NSC834161), MRTX-1133 (NSC836407), osimertinib (NSC779217), RMC-4630 (NSC839698), RMC-6236 (NSC851965), RMC-6291 (NSC852671), Ro-3306 (NSC812927), sapanisertib (NSC764658), SN-38 (NSC673596), staurosporine (NSC755774), SY5609 (NSC837396), and tovorafenib (DAY101, NSC766906), were obtained from the National Cancer Institute (NCI) Developmental Therapeutics Program Chemical Repository. The FDA-approved anticancer drug set is available from the NCI Developmental Therapeutics Program. […] The stock solutions were prepared in dimethyl sulfoxide (DMSO, Sigma-Aldrich, St. Louis, MO, cat. D2650) at 800-fold the tested concentration and stored at -70 degrees C prior to their use. All drugs and investigational agents were tested over a range starting from a high concentration at or near the clinical Cmax and decreasing in half-log increments. If the clinical Cmax for an agent had not been determined, the highest concentration tested was 10 microM.
Cell Culture. All cells were maintained in an incubator at 37 degrees C and 5% CO2 with 95% humidity. The PDC lines were cultured according to standard operating procedures established by the NCI PDMR. All PDCs were thawed and cultured in Matrigel-coated flasks prepared with a working solution of 1X Ham's F-12 nutrient mix, without supplementation (Invitrogen, Waltham, MA, cat. 11765054), 100 U/mL penicillin-streptomycin (Invitrogen, cat. 15140122), and 2.5% Matrigel (Corning Inc., Corning, NY, cat. 354248) for the first three passages. The 362531-283-R-J2-PDC and 782815-120-R-J1-PDC lines were cultured in 6C/Colon 1B media, which includes advanced DMEM/F-12 (Thermo Fisher Scientific, cat. 12634028), 10 mM HEPES (Thermo Fisher Scientific, cat. 15630080), 1X GlutaMAX supplement (Thermo Fisher Scientific, cat. 35050061), 0.1 mg/mL primocin (InvivoGen, San Diego, CA, cat. ant-pm-2), 10% defined fetal bovine serum, heat inactivated (HyClone Laboratories Inc., Logan, UT, cat. SH30070.03HI), 50% L-WRN conditioned media (ATCC, cat. CRL-3276), 1.25 mM N-Acetyl-L-cysteine (Sigma-Aldrich, cat. A9165), 10 mM nicotinamide (Sigma-Aldrich, cat. N0636), 1X B-27 supplement (Thermo Fisher Scientific, cat. 17504044), 1X N-2 supplement (Thermo Fisher Scientific, cat. 17502048), 50 ng/mL human EGF (Thermo Fisher Scientific, cat. PHG0311), and 10 microM Y-27632 dihydrochloride (Tocris Bioscience, cat. 1254). The K12877-001-R-J1-PDC line was cultured in 6I media, which includes all 6C/Colon 1B media plus 10 ng/mL human FGF-10 (PeproTech, cat. 100-26), 1 ng/mL human FGF-2 (PeproTech, cat. 100-18B), 1 µM prostaglandin E2 (Tocris Bioscience, cat. 2296), […] hydrocortisone (Sigma-Aldrich, cat. H4001), and […] bovine insulin (Sigma-Aldrich, cat. I6634). The K86415-001-R-J1-PDC line was cultured in 6D media, which includes all 6C/Colon 1B media components minus the L-WRN conditioned media. The 485176-168-R4-J1-PDC was cultured in PANC media, which includes all 6C/Colon 1B media plus 100 ng/mL human FGF-10 (PeproTech, cat. 100-26), 500 nM SB-431542 (Selleckchem, cat. S1067), and 10 nM gastrin (Tocris Bioscience, cat. 3006). […]
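Also: spheroids exposed to compound for seven days before readout.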
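For viability, T/C in this document: 100% = DMSO vehicle control wells.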

For C[C@@H](NC(=O)c1ncnc(N)c1Cl)c1ncc(C(=O)Nc2cc(C(F)(F)F)c(Cl)cn2)s1 + C#Cc1c(F)ccc2cc(O)cc(-c3ncc4c(N5CC6CCC(C5)N6)nc(OCC56CCCN5CC(F)C6)nc4c3F)c12, the pIC50 (second compound 0.0316 µM) was 5.17, the pIC50 (second compound 0.1 µM) was 5.22 and the pIC50 (second compound 0.316 µM) was 5.17. It also gave a pIC50 (second compound 1 µM) of 5.18, a pIC50 (second compound 3.16 µM) of 5.30 and a pIC50 (second compound 10 µM) of 6.45. The viability, T/C (second compound 0.0316 µM, first compound 0.0316 µM) was 140%, the viability, T/C (second compound 0.0316 µM, first compound 0.1 µM) was 112% and the viability, T/C (second compound 0.0316 µM, first compound 0.316 µM) was 104%. For the same molecule, the viability, T/C (second compound 0.0316 µM, first compound 1 µM) was 88.3%, the viability, T/C (second compound 0.0316 µM, first compound 3.16 µM) was 63% and the viability, T/C (second compound 0.0316 µM, first compound 10 µM) was 41.3%. For the same molecule, the viability, T/C (second compound 0.1 µM, first compound 0.0316 µM) was 124%, the viability, T/C (second compound 0.1 µM, first compound 0.1 µM) was 126% and the viability, T/C (second compound 0.1 µM, first compound 0.316 µM) was 99.4%. The viability, T/C (second compound 0.1 µM, first compound 1 µM) was 88.3%, the viability, T/C (second compound 0.1 µM, first compound 3.16 µM) was 65.8% and the viability, T/C (second compound 0.1 µM, first compound 10 µM) was 37.7%. It also gave a viability, T/C (second compound 0.316 µM, first compound 0.0316 µM) of 121%, a viability, T/C (second compound 0.316 µM, first compound 0.1 µM) of 125% and a viability, T/C (second compound 0.316 µM, first compound 0.316 µM) of 113%. It also gave a viability, T/C (second compound 0.316 µM, first compound 1 µM) of 89.3%, a viability, T/C (second compound 0.316 µM, first compound 3.16 µM) of 66.3% and a viability, T/C (second compound 0.316 µM, first compound 10 µM) of 42%. For the same molecule, the viability, T/C (second compound 1 µM, first compound 0.0316 µM) was 126%, the viability, T/C (second compound 1 µM, first compound 0.1 µM) was 122% and the viability, T/C (second compound 1 µM, first compound 0.316 µM) was 115%. The viability, T/C (second compound 1 µM, first compound 1 µM) was 97.3%, the viability, T/C (second compound 1 µM, first compound 3.16 µM) was 63.4% and the viability, T/C (second compound 1 µM, first compound 10 µM) was 42%. The viability, T/C (second compound 3.16 µM, first compound 0.0316 µM) was 127%, the viability, T/C (second compound 3.16 µM, first compound 0.1 µM) was 126% and the viability, T/C (second compound 3.16 µM, first compound 0.316 µM) was 108%. For the same molecule, the viability, T/C (second compound 3.16 µM, first compound 1 µM) was 86.5%, the viability, T/C (second compound 3.16 µM, first compound 3.16 µM) was 64.1% and the viability, T/C (second compound 3.16 µM, first compound 10 µM) was 31.5%. For the same molecule, the viability, T/C (second compound 10 µM, first compound 0.0316 µM) was 77.3%, the viability, T/C (second compound 10 µM, first compound 0.1 µM) was 70.7% and the viability, T/C (second compound 10 µM, first compound 0.316 µM) was 47.3%. It also gave a viability, T/C (second compound 10 µM, first compound 1 µM) of 38.5%, a viability, T/C (second compound 10 µM, first compound 3.16 µM) of 27.4% and a viability, T/C (second compound 10 µM, first compound 10 µM) of 19%.

— PubChem BioAssay AID2060882 (Molecular Pharmacology Branch, DTP, NCI, 2025)
